Some results are limits rather than exact numbers.

Experiment [1] deals with BTK Activity in RAMOS B Cells. Description: Assay to determine BTK activity in RAMOS B cells (anti-IgM, FLIPR Calcium 6). It is filed as cell-based. The following applies: EC80 anti-IgM, FLIPR calcium read. An outline of the steps: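 Ramos B cells were loaded with Calcium 6 dye containing 5 mM probenecid (2 h at 37 °C, then 15 min at 25 °C) and exposed to compound for 60 min at 25 °C. Anti-IgM was then added from a 4×EC80 stock, and calcium flux was recorded by FLIPR for 160 s; IC50 was derived.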

A further experiment deals with BTK (Homo sapiens, UniProt Q06187). Description: Assay to determine activity against BTK (EZ reader, FLPeptide). Also noted: purchased Carna. Format: biochemical. To be noted: ATP (1 mM), BTK (2 nM), room temperature for 90 minutes. An outline of the steps:
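Human BTK (2 nM) phosphorylated FLPeptide (1.5 uM) with 1 mM ATP in 50 mM HEPES pH7.5, 10 mM MgCl2, 2 mM DTT, 1 mM EGTA, 0.01% Brij-35, 0.05% BSA; 11-point 3-fold compound dilutions. After 90 min at room temperature, EDTA stop; conversion ratio read on EZ reader, IC50 from curve fit with free top and bottom.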

Chain of BTK (Q06187 whole entry): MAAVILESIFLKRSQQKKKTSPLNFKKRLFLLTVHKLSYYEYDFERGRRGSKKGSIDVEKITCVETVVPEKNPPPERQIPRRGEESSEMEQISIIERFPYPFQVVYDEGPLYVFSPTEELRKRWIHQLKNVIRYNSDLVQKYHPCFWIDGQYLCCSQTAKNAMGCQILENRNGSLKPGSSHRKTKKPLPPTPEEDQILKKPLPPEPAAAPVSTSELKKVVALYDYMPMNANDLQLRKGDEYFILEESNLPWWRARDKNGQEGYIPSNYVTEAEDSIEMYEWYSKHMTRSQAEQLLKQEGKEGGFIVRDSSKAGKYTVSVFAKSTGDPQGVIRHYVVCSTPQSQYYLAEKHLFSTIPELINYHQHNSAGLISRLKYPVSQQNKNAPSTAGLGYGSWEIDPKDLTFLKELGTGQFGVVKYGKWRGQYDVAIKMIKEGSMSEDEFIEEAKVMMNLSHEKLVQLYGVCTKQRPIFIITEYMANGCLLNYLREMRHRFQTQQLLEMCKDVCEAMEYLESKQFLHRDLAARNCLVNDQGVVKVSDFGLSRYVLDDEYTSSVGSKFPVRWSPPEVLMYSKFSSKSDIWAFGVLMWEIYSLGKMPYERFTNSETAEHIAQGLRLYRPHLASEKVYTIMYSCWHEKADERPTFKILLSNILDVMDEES

Regarding `C=CC(=O)N1CCc2c(-c3c(F)cc(C(N)=O)c4[nH]c(C)c(Cl)c34)cccc2C1C` (racemic) [Compound 22a, 4-(2-acryloyl-1-methyl-1,2,3,4-tetrahydroisoquinolin-5-yl)-3-chloro-5-fluoro-2-methyl-1H-indole-7-carboxamide], the IC50 in experiment [1] (Homo sapiens, Ramos) is 10 to 100 nM; against BTK, less than 10 nM.
As for `C=CC(=O)N1CCC2CCN(c3c(F)cc(C(N)=O)c4[nH]c(C)c(Cl)c34)CC21` (racemic) [Compound 29, 4-(1-acryloyloctahydro-6H-pyrrolo[2,3-c]pyridin-6-yl)-3-chloro-5-fluoro-2-methyl-1H-indole-7-carboxamide], the IC50 in experiment [1] (Homo sapiens, Ramos) is 10 to 100 nM; against BTK, 10 to 100 nM.
Consider `C=CC(=O)N1CCc2c(cccc2-c2c(F)cc(C(N)=O)c3[nH]c(C)c(Cl)c23)C1` (single isomer, unassigned) [Compound 20b], for which the IC50 (in experiment [1]; at BTK) was less than 10 nM throughout.
`C=CC(=O)N1CCC2CCN(c3c(F)cc(C(N)=O)c4[nH]c(C)c(Cl)c34)CC21` (single isomer, unassigned) [Compound 29a, 4-(1-acryloyloctahydro-6H-pyrrolo[2,3-c]pyridin-6-yl)-3-chloro-5-fluoro-2-methyl-1H-indole-7-carboxamide]: the IC50 in experiment [1] (Homo sapiens, Ramos) was in the range of 10 to 100 nM; at BTK, 10 to 100 nM.
Consider `C=CC(=O)N1CCC2CCN(c3c(F)cc(C(N)=O)c4[nH]c(C)c(C)c34)CC21` (single isomer, unassigned) [Compound 32b, 4-(1-acryloyloctahydro-6H-pyrrolo[2,3-c]pyridin-6-yl)-5-fluoro-2,3-dimethyl-1H-indole-7-carboxamide], for which the concentration for half-maximal inhibition (IC50) (in experiment [1]; against BTK) was 10 to 100 nM in each case.
Consider `C=CC(=O)N1CCC=C(c2c(F)cc(C(N)=O)c3[nH]c(C)c(Cl)c23)C1` [Compound 1, 4-(1-acryloyl-1,2,5,6-tetrahydropyridin-3-yl)-3-chloro-5-fluoro-2-methyl-1H-indole-7-carboxamide], for which the IC50 in experiment [1] (Homo sapiens, Ramos) is less than 10 nM; against BTK, less than 10 nM.
With `C=CC(=O)N1CCC[C@@H](c2c(F)cc(C(N)=O)c3[nH]c(C)c(Cl)c23)C1` [Compound 2a, (S)-4-(1-acryloylpiperidin-3-yl)-3-chloro-5-fluoro-2-methyl-1H-indole-7-carboxamide], the IC50 in experiment [1] (Homo sapiens, Ramos) was less than 10 nM; against BTK it was less than 10 nM.
On to `C=CC(=O)N1CCC[C@H](c2c(F)c(F)c(C(N)=O)c3[nH]c(C)c(F)c23)C1` [Compound 6a, (R)-4-(1-acryloylpiperidin-3-yl)-3,5,6-trifluoro-2-methyl-1H-indole-7-carboxamide], for which the half-inhibitory concentration (IC50) is less than 10 nM in experiment [1] (Homo sapiens, Ramos) and less than 10 nM against BTK.
On to `C=CC(=O)N1CCC[C@@H](c2c(F)c(F)c(C(N)=O)c3[nH]c(C)c(F)c23)C1` [Compound 6b, (S)-4-(1-acryloylpiperidin-3-yl)-3,5,6-trifluoro-2-methyl-1H-indole-7-carboxamide], for which the IC50 in experiment [1] (Homo sapiens, Ramos) was less than 10 nM; against BTK it was less than 10 nM.
For the molecule `C=CC(=O)N1CCC[C@@H](c2c(F)c(F)c(C(N)=O)c3[nH]c(C)c(Cl)c23)C1` [Compound 16, (S)-4-(1-acryloylpiperidin-3-yl)-3-chloro-5,6-difluoro-2-methyl-1H-indole-7-carboxamide], the half-inhibitory concentration (IC50) in experiment [1] (Homo sapiens, Ramos) was less than 10 nM; at BTK, less than 10 nM.
For the molecule `CC#CC(=O)N[C@H]1C[C@@H](F)CN(c2c(F)cc(C(N)=O)c3[nH]c(C)c(Cl)c23)C1` [Compound 27, 4-((3S,5R)-3-(but-2-ynamido)-5-fluoropiperidin-1-yl)-3-chloro-5-fluoro-2-methyl-1H-indole-7-carboxamide], the IC50 in experiment [1] (Homo sapiens, Ramos) was less than 10 nM; against BTK, less than 10 nM.
Regarding `CC#CC(=O)N[C@H]1C[C@@H](F)CN(c2c(F)cc(C(N)=O)c3[nH]c(C)c(C)c23)C1` [Compound 33, 4-((3S,5R)-3-(but-2-ynamido)-5-fluoropiperidin-1-yl)-5-fluoro-2,3-dimethyl-1H-indole-7-carboxamide], the IC50 is less than 10 nM in experiment [1] (Homo sapiens, Ramos) and less than 10 nM against BTK.
`CC#CC(=O)N[C@H]1C[C@H](F)CN(c2c(F)cc(C(N)=O)c3[nH]c(C)c(C)c23)C1` [Compound 35, 4-((3S,5S)-3-(but-2-ynamido)-5-fluoropiperidin-1-yl)-5-fluoro-2,3-dimethyl-1H-indole-7-carboxamide]: the half-maximal inhibitory concentration (IC50) in experiment [1] (Homo sapiens, Ramos) was less than 10 nM; against BTK it was less than 10 nM.
As for `CC#CC(=O)N1CCCC2CN(c3c(F)cc(C(N)=O)c4[nH]c(C)c(Cl)c34)CC21` (stereo not shown) [Compound 40, 4-(1-(but-2-ynoyl)octahydro-6H-pyrrolo[3,4-b]pyridin-6-yl)-3-chloro-5-fluoro-2-methyl-1H-indole-7-carboxamide], the half-inhibitory concentration (IC50) was 10 to 100 nM in experiment [1] (Homo sapiens, Ramos) and less than 10 nM at BTK.

One may read the IC50 as the concentration needed to halve the response being measured.

Source of the values: US12448363B2, “Kinase inhibitors” (Vidya Therapeutics, Inc., priority 2020, dated 2025).
